# US7479471B2, “2-Amino-4-bicyclylamino-6H-1,3,5-triazines, processes for their preparation and their use as herbicides and plant growth regulators” (Bayer CropScience GmbH, priority 2002, dated 2009)
# Key:
# Assay type in all cases: in vivo
# [1] = test system: harmful plants which are typical for rice crops; assay: Action against harmful plants in rice (paddy rice conditions); details: applied to the paddy water; approximately three weeks after application; Cyperus monti, Echinochloa crus-galli, Eleocharis acicularis, Sagittaria pygmaea; further: test concentration or dose not given here
# Experimental: Transplanted and seeded rice and typical rice weeds are grown in the greenhouse until they have reached the three-leaf stage (Echinochloa 1.5-leaves) under paddy rice conditions (flooding level of the water: 2-3 cm) in closed plastic pots. They are then treated with the compounds according to the invention. To this end, the formulated active substances are suspended, dissolved or emulsified in water and applied to the paddy water of the test plants at various dosages by application by pouring.
# After the treatment has been carried out in this way, the test plants are placed into the greenhouse under optimum growth conditions and are kept in this way over the entire experimental period.
# crop plants = assay: Crop plant tolerance (greenhouse, pre- and post-emergence); details: visual scoring four to five weeks after application
# Experimental: In further greenhouse experiments, seeds of a relatively large number of crop plants and weeds are placed in sandy loam and covered with soil. Some of the pots are treated immediately as described in Section 1, while the remaining pots are placed in the greenhouse until the plants have developed two to three real leaves, and they are then sprayed with various dosages of substances of the formula (I) according to invention as described in Section 2. Four to five weeks after the application and standing time in the greenhouse, it is found by means of visual scoring that the compounds according to the invention leave dicotyledonous crops such as, for example, soybeans, cotton, oilseed rape, sugar beet and potatoes unharmed when applied pre- and post-emergence, even at high rates of active compound. In addition, some substances also leave graminaceous crops such as, for example, barley, wheat, rye, sorghum, corn or rice, unharmed.
# [2] = test system: monocotyledonous and dicotyledonous weed plants; assay: Pre-emergence herbicidal action (greenhouse pot test); details: pre-emergence method; application rate of 0.5 kg and less of active substance per hectare; Sinapis alba, Chrysanthemum segetum, Avena sativa, Stellaria media, Echinochloa crus-galli, Lolium multiflorum, Setaria spp., Abutilon theophrasti, Amaranthus retrofluxus, Panicum miliaceum
# From the text: Seeds or rhizome pieces of monocotyledonous and dicotyledonous weed plants are placed in sandy loam in plastic pots and covered with soil. The compounds according to the invention, which are formulated in the form of wettable powders or emulsion concentrates, are then applied to the surface of the soil cover as aqueous suspension or emulsion at various dosages with an application rate of 600 to 800 l of water/ha (converted).
# After the treatment, the pots are placed into a greenhouse and kept under good growth conditions for the weeds. The plant or emergence damage is scored visually after the untreated controls have emerged. As shown by the test results, the compounds according to the invention have good herbicidal pre-emergence activity against a broad spectrum of weed grasses and broad-leaved weeds.
# [3] = test system: monocotyledonous and dicotyledonous weeds; assay: Post-emergence herbicidal action (greenhouse pot test); details: post-emergence method; application rate of 0.5 kg or less of active substance per hectare; scored after approx. 3 to 4 weeks; Sinapis alba, Echinochloa crus-galli, Lolium multiflorum, Chrysanthemum segetum, Setaria spp., Abutilon theophrasti, Amaranthus retroflexus, Panicum miliaceum, Avena sativa
# Experimental: Seeds or rhizone pieces of monocotyledonous and dicotyledonous weeds are placed in sandy loam in plastic pots, covered with soil and grown in the greenhouse under good growth conditions. Three weeks after sowing, the test plants are treated at the three-leaf stage. Various dosages of the compounds according to the invention, which are formulated as wettable powders or emulsion concentrates, are sprayed onto the green plant parts at an application rate of 600 to 800 l of water per ha (converted), and after the test plants have been left to stand in the greenhouse for approx. 3 to 4 weeks under optimum growth conditions, the effect of the preparations is scored visually by comparison with untreated controls. The compositions according to the invention also have good herbicidal post-emergence activity against a broad spectrum of economically important weed grasses and broad-leaved weeds.
Compound,"herbicidal action against harmful plants typical for rice crops, scored visually [1]",selectivity (crop plants versus weeds) (crop plants),"herbicidal action against harmful plants, scored visually [2]","herbicidal action against harmful plants, scored visually [3]"
Cc1ccc2c(c1C)CCCC2Nc1ncnc(N)n1 (stereo not drawn) [Example 19],very good herbicidal action,in some cases high selectivity,very good herbicidal action,very good herbicidal action
Cc1cc(F)cc2c1OCCC2Nc1ncnc(N)n1 (stereo not drawn) [Example 288],very good herbicidal action,in some cases high selectivity,very good herbicidal action,very good herbicidal action
CCC1Cc2ccc(C)cc2C1Nc1ncnc(N)n1 (stereo not drawn) [Example 291],very good herbicidal action,in some cases high selectivity,very good herbicidal action,very good herbicidal action
CC1Cc2cc(Cl)ccc2C1Nc1ncnc(N)n1 (stereo not drawn) [Example 58],very good herbicidal action,in some cases high selectivity,very good herbicidal action,very good herbicidal action
Cc1cccc2c1C(Nc1ncnc(N)n1)C(C)C2 (stereo not drawn) [Example 290],very good herbicidal action,in some cases high selectivity,very good herbicidal action,very good herbicidal action
CC1Cc2cc(F)ccc2C1Nc1ncnc(N)n1 (stereo not drawn) [Example 55],very good herbicidal action,in some cases high selectivity,very good herbicidal action,very good herbicidal action
Cc1ccc2c(c1)C(Nc1ncnc(N)n1)CC2 (stereo not drawn) [Example 146],very good herbicidal action,in some cases high selectivity,very good herbicidal action,very good herbicidal action
CC1Cc2ccc(F)cc2C1Nc1ncnc(NC(=O)C(F)(F)F)n1 (stereo not drawn) [Example 285],very good herbicidal action,in some cases high selectivity,very good herbicidal action,very good herbicidal action
Nc1ncnc(NC2CCc3ccccc32)n1 (stereo not drawn) [Example 185],very good herbicidal action,in some cases high selectivity,very good herbicidal action,very good herbicidal action
CC1Cc2ccccc2C1Nc1ncnc(N)n1 (stereo not drawn) [Example 198],very good herbicidal action,in some cases high selectivity,very good herbicidal action,very good herbicidal action
CC1Cc2ccc(F)cc2C1Nc1ncnc(NC(=O)CCl)n1 (stereo not drawn) [Example 286],very good herbicidal action,in some cases high selectivity,very good herbicidal action,very good herbicidal action
Cc1cc(C)c2c(c1)C(Nc1ncnc(N)n1)CCC2 (stereo not drawn) [Example 1],very good herbicidal action,in some cases high selectivity,very good herbicidal action,very good herbicidal action
Cc1cc(C)c2c(c1)C(Nc1ncnc(N)n1)CCO2 (stereo not drawn) [Example 4],very good herbicidal action,in some cases high selectivity,very good herbicidal action,very good herbicidal action
Cc1cc2c(cc1C)C(Nc1ncnc(N)n1)C(C)C2 (stereo not drawn) [Example 293],very good herbicidal action,in some cases high selectivity,very good herbicidal action,very good herbicidal action
Cc1ccc2c(c1)C(Nc1ncnc(N)n1)C(C)(C)C2 (stereo not drawn) [Example 292],very good herbicidal action,in some cases high selectivity,very good herbicidal action,very good herbicidal action
CC1Cc2ccc(F)cc2C1Nc1ncnc(N)n1 (stereo not drawn) [Example 282],very good herbicidal action,in some cases high selectivity,very good herbicidal action,very good herbicidal action
CC(=O)Nc1ncnc(NC2c3cc(F)ccc3CC2C)n1 (stereo not drawn) [Example 283],very good herbicidal action,in some cases high selectivity,very good herbicidal action,very good herbicidal action
Nc1ncnc(NC2CCOc3ccc(F)cc32)n1 (stereo not drawn) [Example 289],very good herbicidal action,in some cases high selectivity,very good herbicidal action,very good herbicidal action
Cc1cccc2c1OCCC2Nc1ncnc(N)n1 (stereo not drawn) [Example 5],very good herbicidal action,in some cases high selectivity,very good herbicidal action,very good herbicidal action
Cc1ccc2c(c1)C(Nc1ncnc(N)n1)C(C)C2 (stereo not drawn) [Example 281],very good herbicidal action,in some cases high selectivity,very good herbicidal action,very good herbicidal action
Cc1cc(C)c2c(c1)C(Nc1ncnc(N)n1)CCS2 (stereo not drawn) [Example 79],very good herbicidal action,in some cases high selectivity,very good herbicidal action,very good herbicidal action
